In the supplement of paper PMC10307832:

Legend:
Test in all cases: relative viability (nuclei count vs DMSO), 5 days (fraction); higher = more cells survive
Irinotecan + Phenformin = compound: CCc1c2c(nc3ccc(OC(=O)N4CCC(N5CCCCC5)CC4)cc13)-c1cc3c(c(=O)n1C2)COC(=O)[C@]3(O)CC [Irinotecan] + N=C(N)NC(=N)NCCc1ccccc1 [Phenformin] (partner 250 µM)
Procedure, shortened: (§1)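 Each reported value is a median over duplicate plates. It expresses relative viability: treated-well nuclei count divided by vehicle-well nuclei count. Lung cancer cell lines in 1536-well plates were dosed by pin tool a day after seeding, alone with one drug or with a fixed anchor-drug dose plus five library-drug doses (not always all listed) in √10 steps, and nuclei were counted after 5 days.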

Irinotecan + Trametinib = compound: CCc1c2c(nc3ccc(OC(=O)N4CCC(N5CCCCC5)CC4)cc13)-c1cc3c(c(=O)n1C2)COC(=O)[C@]3(O)CC [Irinotecan] + CC(=O)Nc1cccc(-n2c(=O)n(C3CC3)c(=O)c3c(Nc4ccc(I)cc4F)n(C)c(=O)c(C)c32)c1 [Trametinib] (partner 0.02 µM)
Procedure, shortened: as §1

RU-SKI 43 + OSI-027 = compound: CC[C@@H](C)CNCC(=O)N1CCC2=C([C@@H]1COC3=CC=CC(=C3)C)C=CS2 [RU-SKI 43] + COc1cccc2cc(-c3nc([C@H]4CC[C@H](C(=O)O)CC4)n4ncnc(N)c34)[nH]c12 [OSI-027] (partner 0.5 µM)
Procedure, shortened: as §1

RU-SKI 43 + Dasatinib = compound: CC[C@@H](C)CNCC(=O)N1CCC2=C([C@@H]1COC3=CC=CC(=C3)C)C=CS2 [RU-SKI 43] + Cc1nc(Nc2ncc(C(=O)Nc3c(C)cccc3Cl)s2)cc(N2CCN(CCO)CC2)n1 [Dasatinib] (partner 0.075 µM)
Procedure, shortened: as §1

| Cell Line | relative viability (Irinotecan + Phenformin; first compound 0.6325 µM) | relative viability (Irinotecan + Phenformin; first compound 2 µM) | relative viability (Irinotecan + Phenformin; first compound 6.325 µM) | relative viability (Irinotecan + Phenformin; first compound 20 µM) | relative viability (Irinotecan + Trametinib; first compound 2 µM) | relative viability (Irinotecan + Trametinib; first compound 6.325 µM) | relative viability (Irinotecan + Trametinib; first compound 20 µM) | relative viability (RU-SKI 43 + OSI-027; first compound 0.1 µM) | relative viability (RU-SKI 43 + OSI-027; first compound 0.3162 µM) | relative viability (RU-SKI 43 + OSI-027; first compound 1 µM) | relative viability (RU-SKI 43 + OSI-027; first compound 3.162 µM) | relative viability (RU-SKI 43 + OSI-027; first compound 10 µM) | relative viability (RU-SKI 43 + Dasatinib; first compound 0.1 µM) | relative viability (RU-SKI 43 + Dasatinib; first compound 0.3162 µM) | relative viability (RU-SKI 43 + Dasatinib; first compound 1 µM) | relative viability (RU-SKI 43 + Dasatinib; first compound 3.162 µM) | relative viability (RU-SKI 43 + Dasatinib; first compound 10 µM) | relative viability (Irinotecan + Trametinib; first compound 0.6325 µM) |
| --- | --- | --- | --- | --- | --- | --- | --- | --- | --- | --- | --- | --- | --- | --- | --- | --- | --- | --- |
| NCI-H1395 | 0.403 | 0.493 | 0.389 | 0.399 | 0.812 | 0.549 | 0.375 | 0.717 | 0.684 | 0.747 | 0.558 | 0.6 | 0.4 | 0.375 | 0.437 | 0.37 | 0.456 | – |
| ABC-1 | – | 0.292 | 0.229 | 0.0948 | – | – | – | 0.541 | 0.385 | 0.554 | 0.52 | 0.473 | 0.664 | 0.443 | 0.638 | 0.553 | 0.501 | – |
| NCI-H2023 | 0.415 | 0.391 | 0.178 | 0.0825 | 0.646 | 0.261 | 0.0947 | 0.442 | 0.455 | 0.465 | 0.413 | 0.372 | 0.581 | 0.835 | 0.649 | 0.599 | 0.61 | 0.589 |
| PC-14 | – | 0.661 | 0.242 | 0.155 | 0.436 | 0.164 | 0.137 | 0.844 | 1.07 | 0.93 | 0.965 | 0.75 | 0.242 | 0.25 | 0.283 | 0.241 | 0.183 | 0.744 |
| ChaGo-K-1 | 0.413 | 0.352 | 0.191 | 0.218 | 0.24 | 0.21 | 0.221 | 0.658 | 0.632 | 0.646 | 0.579 | 0.744 | 0.651 | 0.532 | 0.574 | 0.492 | 0.502 | 0.296 |
| NCI-H650 | 0.36 | 0.409 | 0.239 | 0.248 | 0.308 | 0.173 | 0.206 | 0.496 | 0.467 | 0.643 | 0.494 | 0.565 | 0.484 | 0.45 | 0.468 | 0.398 | 0.45 | 0.733 |
| NCI-H2228 | 0.311 | 0.347 | 0.336 | 0.27 | 0.611 | 0.402 | 0.437 | 0.651 | 0.722 | 0.483 | 0.689 | 0.471 | 0.74 | 0.658 | 0.486 | 0.555 | 0.425 | 0.279 |
| 201T | – | 0.489 | 0.361 | 0.333 | 0.347 | 0.255 | 0.27 | 0.834 | 0.709 | 1.06 | 0.69 | 0.458 | 0.565 | 0.547 | 0.624 | 0.627 | 0.56 | 0.771 |
| NCI-H1915 | 0.268 | 0.27 | 0.2 | 0.195 | 0.175 | 0.122 | 0.127 | 0.641 | 0.706 | 0.703 | 0.686 | 0.614 | 0.337 | 0.331 | 0.357 | 0.306 | 0.318 | 0.25 |
| NCI-H358 | 0.273 | 0.278 | 0.125 | 0.0851 | 0.131 | 0.125 | 0.071 | 0.597 | 0.642 | 0.975 | 0.865 | 0.564 | 0.166 | 0.127 | 0.131 | 0.151 | 0.167 | 0.106 |
| NCI-H2347 | 0.284 | 0.263 | 0.298 | 0.246 | 0.382 | 0.351 | 0.415 | 0.414 | 0.414 | 0.697 | 0.389 | 0.328 | 0.34 | 0.23 | 0.364 | 0.203 | 0.293 | 0.271 |
| H3255 | 0.343 | 0.337 | 0.344 | 0.331 | 0.506 | 0.346 | 0.37 | 0.543 | 0.598 | 0.582 | 0.607 | 0.584 | 0.364 | 0.387 | 0.578 | 0.393 | 0.309 | – |
| NCI-H2009 | 0.421 | 0.411 | 0.232 | 0.167 | 0.34 | 0.213 | 0.0843 | 0.69 | 0.599 | 0.698 | 0.699 | 0.601 | 0.314 | 0.296 | 0.324 | 0.289 | 0.276 | 0.282 |
| A549 | – | 0.198 | 0.113 | 0.0897 | – | – | – | – | – | – | – | – | – | – | – | – | – | – |
| NCI-H1563 | 0.634 | 0.691 | 0.608 | 0.38 | – | – | – | 0.772 | 0.778 | 0.819 | 0.75 | 0.786 | 0.4 | 0.409 | 0.534 | 0.404 | 0.467 | – |
| NCI-H1623 | 0.548 | 0.696 | 0.233 | 0.219 | – | – | – | 0.435 | 0.421 | 0.428 | 0.443 | 0.448 | 0.513 | 0.514 | 0.668 | 0.541 | 0.468 | – |
| HCC-44 | – | 0.251 | 0.147 | 0.211 | 0.868 | 0.561 | 0.421 | 0.511 | – | 0.777 | 0.479 | 0.611 | – | – | – | – | – | 1.01 |
